Here are results for 7 compounds from patent US20240067651A1 (Biohaven Therapeutics Ltd., priority 2019, published 2024).

The test system of data set [1] is Caco-2 monolayer. The data set can be described thus: Caco-2 Permeability Assay. Format: in vitro ADME, human. The gist of the method: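 Caco-2 monolayers cultured 21 days (TEER >600 […]); test article at 10 μM in HBSS/HEPES pH 7.4 transport medium, dosed apical or basolateral, ±Pgp inhibitor. Incubated 90 min at 37 °C; both compartments quantified by LC-MS/MS. Papp (A→B, B→A), efflux ratio and % recovery calculated.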

Data set [2] can be described thus: Stability in Simulated Gastric Fluid (SGF). Set-up: key: % parent compound remaining relative to 0-minute sample. The class given is in vitro ADME. In outline: (§1)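 Stability was tested at 37° C in pepsin-supplemented gastric fluid, pH 1.2, and pancreatin-supplemented intestinal fluid, pH 6.8, using 2 μg/mL final compound over 0–60 minutes. Remaining parent was quantified by LC-MS/MS and expressed as a percentage of time zero.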

Data set [3] can be described thus: Stability in Simulated Intestinal Fluid (SIF). Set-up: key: % parent compound remaining relative to 0-minute sample. The class given is in vitro ADME. In outline: as §1
The nature of data set [4]: Plasma Stability. Format: in vitro ADME, human. The gist of the method: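 Compounds incubated at 1 μM in fresh human plasma for 1 hour at 37° C, then protein-precipitated with acetonitrile/formic acid containing internal standard. Remaining parent measured by LC-MS/MS in triplicate, expressed as percent of control remaining.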
[5] abbreviates: % @ 1 h (remaining) in simulated gastric fluid.
[6] abbreviates: % @ 1 h (remaining) in simulated intestinal fluid.
[7] abbreviates: % @ 1 h (remaining) in human plasma.
Setting [8] is: Caco-2 monolayer, the 15th table.
The mark [9] stands for this setting: % remaining at 1 h in human plasma, the 15th table.
The mark [10] stands for this setting: bare number, unit or time not given, the 15th table Examples 204-207.

Molecules are shown by their SMILES.

Regarding `CCN(C)C(=O)OCSc1nc(=O)c2c(ccn2COC(=O)N(C)CC)n1CCOC(C)C.O=C(O)C(F)(F)F` [Example 169, trifluoroacetic acid {2-[{{[ethyl(methyl)carba-moyl]oxy}methyl)sulfanyl]-4-oxo-1-[2-(propan-2-yloxy)ethyl]-1H,4H,5H-pyrrolo[3,2-d]pyrimidin-5-yl}methyl N-ethyl-N-methylcarbamate], the “Caco-2 Papp” value in data set [1] (Caco-2 monolayer) came out at 10.9 ×10⁻⁶ cm/s. Moreover, the SGF in data set [2] (setting [5]) was 99% @ 1 h. Besides, the SIF in data set [3] (setting [6]) is 81% @ 1 h. Moreover, in data set [4] (setting [7]), the “human Plasma stability” value turned out to be 89% @ 1 h.

On to `CC(C)OCCn1c(SCOC(=O)N(C)Cc2ccccc2)nc(=O)c2c1ccn2COC(=O)N(C)Cc1ccccc1.O=C(O)C(F)(F)F` [Example 174, trifluoroacetic acid {2-[{{[benzyl(methyl)carba-moyl]oxy}methyl)sulfanyl]-4-oxo-1-[2-(propan-2-yloxy)ethyl]-1H,4H,5H-pyrrolo[3,2-d]pyrimidin-5-yl}methyl N-benzyl-N-methylcarbamate], for which the “Caco-2 Papp” value in data set [1] (Caco-2 monolayer) turned out to be 30.4 ×10⁻⁶ cm/s. For the same compound, the SGF in data set [2] (setting [5]) is 99% @ 1 h. Further, the SIF in data set [3] (setting [6]) is given as 99% @ 1 h. Moreover, the “human Plasma stability” value in data set [4] (setting [7]) was determined as 99% @ 1 h.

In the case of `CC(C)OCCn1c(=S)[nH]c(=O)c2c1ccn2CO` [Example 197], the “Caco-2 Papp (nm/s)” value in data set [1] (setting [8]) was “unstable”. Further, the SGF in data set [2] (% remaining at 1 h in simulated gastric fluid, the 15th table) is listed as 98% remaining. For the same compound, the SIF in data set [3] (% remaining at 1 h in simulated intestinal fluid, the 15th table) is reported as 55% remaining. Further, in data set [4] (setting [9]), the “human Plasma stability” value is 86% remaining.

`CCCCCCCCOC(=O)OCSc1nc(=O)c2c(ccn2COC(=O)OCCCCCCCC)n1CCOC(C)C` [Example 207, octyl {2-[{{[(octyloxy)carbon-yl]oxy}methyl)sulfanyl]-4-oxo-1-[2-(propan-2-yloxy)ethyl]-1H,4H,5H-pyrrolo[3,2-d]pyrimidin-5-yl} methyl carbonate]: the “Caco-2 Papp” value in data set [1] (setting [8]) amounted to 0.267 ×10⁻⁶ cm/s. Moreover, the SGF in data set [2] (setting [10]) is listed as 90. Besides, the SIF in data set [3] (setting [10]) was 29. In addition, in data set [4] (setting [9]), the “human Plasma stability” value is listed as 92% remaining.

Take `COc1ccc(N(C)C(=O)OCSc2nc(=O)c3[nH]ccc3n2CCOC(C)C)cc1` [Example 254]: the “Caco-2 Papp” value in data set [1] (Caco-2 monolayer) came to 8.53 ×10⁻⁶ cm/s. In addition, the SGF in data set [2] (simulated gastric fluid, at 1 h) is recorded as 95% remaining. In data set [3] (simulated intestinal fluid, at 1 h), the SIF is given as 94% remaining. In data set [4] (human plasma, at 1 h), the “human Plasma stability” value is on record as 88% remaining.

Take `CC(C)OCCn1c(SCOC(=O)[C@H](N)Cc2ccccc2)nc(=O)c2c1ccn2COC(=O)[C@H](N)Cc1ccccc1.O=C(O)C(F)(F)F.O=C(O)C(F)(F)F` [Example 312, bis(trifluoroacetic acid) {[5-({[(2R)-2-amino-3-phenylpropanoyl]oxy}methyl)-4-oxo-1-[2-(propan-2-yloxy)ethyl]-1H,4H,5H-pyrrolo[3,2-d]pyrimidin-2-yl]sulfanyl} methyl (2R)-2-amino-3-phenylpropanoate]: in data set [1] (Caco-2), the “Caco-2 Papp” value is more than 0.0994 ×10⁻⁶ cm/s. For the same compound, in data set [2] (% remaining @ 1 h), the SGF is reported as 99% @ 1 h. Moreover, in data set [3] (% remaining @ 1 h), the SIF was 29% @ 1 h. Moreover, in data set [4] (% remaining @ 1 h), the “human Plasma stability” value worked out at 24% @ 1 h.

In the case of `CC(C)C[C@H](NC(=O)OC(C)(C)C)C(=O)OCSc1nc(=O)c2c(ccn2COC(=O)[C@H](CC(C)C)NC(=O)OC(C)(C)C)n1CCOC(C)C` [Example 315, {[5-({[(2S)-2-{[ (tert-butoxy)carbonyl]amino}-4-methylpentanoyl]oxy}methyl)-4-oxo-1-[2-(propan-2-yloxy)ethyl]-1H,4H,5H-pyrrolo[3,2-d]pyrimidin-2-yl]sulfanyl} methyl (2S)-2-{[(tert-butoxy)carbonyl]amino}-4-methylpentanoate], in data set [1] (Caco-2), the “Caco-2 Papp” value is 14.1 ×10⁻⁶ cm/s. In addition, the SGF in data set [2] (% remaining @ 1 h) is 78%@ 1 h. In addition, in data set [3] (% remaining @ 1 h), the SIF is listed as 5%@ 1 h. Moreover, in data set [4] (% remaining @ 1 h), the “human Plasma stability” value is 7%@ 1 h.
